Measurements taken from patent publication US7687643B2, “Process for preparing 3,3-dimethylindolines” (Amgen Inc., priority 2001, dated 2010).

Tested on: Human Umbilical Vein Endothelial cells (VEGF-stimulated)
Test: HUVEC proliferation assay, VEGF-stimulated
Format: cell-based
Conditions: VEGF 50 ng/mL, 72 h, CyQuant, read-out: inhibited VEGF-stimulated HUVEC proliferation at a level
Procedure: Human Umbilical Vein Endothelial cells are purchased from Clonetics, Inc., as cryopreserved cells harvested from a pool of donors. These cells, at passage 1, are thawed and expanded in EBM-2 complete medium, until passage 2 or 3. The cells are trypsinized, washed in DMEM+10% FBS+antibiotics, and spun at 1000 rpm for 10 min. Prior to centrifugation of the cells, a small amount is collected for a cell count. After centrifugation, the medium is discarded, and the cells are resuspended in the appropriate volume of DMEM+10% FBS+antibiotics to achieve a concentration of 3×10^5 cells/mL. Another cell count is performed to confirm the cell concentration. The cells are diluted to 3×10^4 cells/mL in DMEM+10% FBS+antibiotics, and 100 μL of cells are added to a 96-well plate. The cells are incubated at 37° C. for 22 h.
Prior to the completion of the incubation period, compound dilutions are prepared. Five-point, five-fold serial dilutions are prepared in DMSO, at concentrations 400-fold greater than the final concentrations desired. 2.5 μL of each compound dilution are diluted further in a total of 1 mL DMEM+10% FBS+antibiotics (400× dilution). Medium containing 0.25% DMSO is also prepared for the 0 μM compound sample. At the 22-hour timepoint, the medium is removed from the cells, and 100 μL of each compound dilution is added. The cells are incubated at 37° C. for 2-3 h.
During the compound pre-incubation period, the growth factors are diluted to the appropriate concentrations. Solutions of DMEM+10% FBS+antibiotics, containing either VEGF or bFGF at the following concentrations: 50, 10, 2, 0.4, 0.08, and 0 ng/mL are prepared. For the compound-treated cells, solutions of VEGF at 550 ng/mL or bFGF at 220 ng/mL for 50 ng/mL or 20 ng/mL final concentrations, respectively, are prepared since 10 μL of each will be added to the cells (110 μL final volume). At the appropriate time after adding the compounds, the growth factors are added. VEGF is added to one set of plates, while bFGF is added to another set of plates. For the growth factor control curves, the media on wells B4-G6 of plates 1 and 2 are replaced with media containing VEGF or bFGF at the varying concentrations (50-0 ng/mL). The cells are incubated at 37° C. for an additional 72 h.
At the completion of the 72 h incubation period, the medium is removed, and the cells are washed twice with PBS. After the second wash with PBS, the plates are tapped gently to remove excess PBS, and the cells are placed at −70° C. for at least 30 min. The cells are thawed and analyzed using the CyQuant fluorescent dye (Molecular Probes C-7026), following the manufacturer's recommendations. The plates are read on a Victor/Wallac 1420 workstation at 485 nm/530 nm (excitation/emission). Raw data are collected and analyzed using a 4-parameter fit equation in XLFit. IC50 values are then determined.

CNc1cc(CNc2ncccc2C(=O)Nc2cc(OC[C@@H]3CCCN3C)cc(C(F)(F)F)c2)ccn1 [Example 1143, 2-[(2-Methylamino-pyridin-4-ylmethyl)-amino]-N-[3-(1-methyl-pyrrolidin-2-ylmethoxy)-5-trifluoromethyl-phenyl]-nicotinamide]
IC50: < 50 nM

CNc1nccc(CNc2ncccc2C(=O)Nc2ccc3c(c2)N(S(C)(=O)=O)CC3(C)C)n1 [Example 1060, N-(3,3-dimethyl-1-(methylsulfonyl)-2,3-dihydro-1H-indol-6-yl)-2-(((2-(methylamino)-4-pyrimidinyl)methyl)amino)-3-pyridinecarboxamide]
IC50: < 50 nM

O=C(Nc1cc(CCCN2CCCCC2)cc(C(F)(F)F)c1)c1cccnc1NCc1ccncc1 [Example 963, N-[3-(3-Piperidin-1-yl-propyl)-5-trifluoromethyl-phenyl]-2-[(pyridin-4-ylmethyl)-amino]-nicotinamide]
IC50: < 50 nM

CNc1nccc(CNc2ncccc2C(=O)Nc2ccc(C(C)(C)C)c(NC(=O)CN(C)C)c2)n1 [Example 1077, N-(4-(1,1-dimethylethyl)-3-((N,N-dimethylglycyl)amino)phenyl)-2-(((2-(methylamino)-4-pyrimidinyl)methyl)amino)-3-pyridinecarboxamide]
IC50: < 50 nM

CC(C)c1ccc(NC(=O)c2cccnc2NCc2ccncc2)cc1 [Example 25, N-(4-Isopropylphenyl){2-[(4-pyridylmethyl)amino](3-pyridyl)}carboxamide]
IC50: < 50 nM

CC(C)(C)OC(=O)N1CCC[C@@H]1COc1cc(NC(=O)c2cccnc2NCc2ccncc2)cc(C(F)(F)F)c1 [Example 916, (R) N-[3-(1-Boc-pyrrolidin-2-ylmethoxy)-5-trifluoromethyl-phenyl]-2-[(pyridin-4-ylmethyl)-amino]-nicotinamide]
IC50: < 50 nM

COc1cc(CNc2ncccc2C(=O)Nc2ccc3c(c2)CNCC3(C)C)ccn1 [Example 1177, N-(4,4-Dimethyl-1,2,3,4-tetrahydro-isoquinolin-7-yl)-2-[(2-methoxy-pyridin-4-ylmethyl)-amino]-nicotinamide]
IC50: < 50 nM

CS(=O)(=O)NCCOc1cc(NC(=O)c2cccnc2NCc2ccncc2)cc(C(F)(F)F)c1 [Example 1090, N-(3-((2-((methylsulfonyl)amino)ethyl)oxy)-5-(trifluoromethyl)phenyl)-2-((4-pyridinylmethyl)amino)-3-pyridinecarboxamide]
IC50: < 50 nM

COc1cc(CNc2ncccc2C(=O)Nc2ccc(C(C)C)cc2)ccn1 [Example 140, (2-{[(2-Methoxy(4-pyridyl))methyl]amino}(3-pyridyl))-N-[4-(methylethyl)phenyl]carboxamide]
IC50: < 50 nM

CN1CCC(CCCOc2cc(CNc3ncccc3C(=O)Nc3ccc(C(F)(F)F)cc3)ccn2)CC1 [Example 922, 2-({2-[3-(1-Methyl-piperidin-4-yl)-propoxy]-pyridin-4-ylmethyl}-amino)-N-(4-trifluoromethyl-phenyl)-nicotinamide]
IC50: < 50 nM

O=C(Nc1ccc(C(F)(F)F)cc1)c1cccnc1NCc1ccncc1 [Example 165, {2-[(4-Pyridylmethyl)amino](3-pyridyl)}-N-[4-(trifluoromethyl)phenyl]carboxamide]
IC50: < 50 nM

COc1nccc(CNc2ncccc2C(=O)Nc2ccc(C(C)(C)C)c(NC(=O)CN(C)C)c2)n1 [Example 1074, N-(4-(1,1-dimethylethyl)-3-((N,N-dimethylglycyl)amino)phenyl)-2-(((2-(methyloxy)-4-pyrimidinyl)methyl)amino)-3-pyridinecarboxamide]
IC50: < 50 nM

O=C(Nc1ccc(C(F)(F)F)c(OCCN2CCCC2)c1)c1cccnc1NCc1ccncc1 [Example 982, 2-[(Pyridin-4-ylmethyl)-amino]-N-[3-(2-pyrrolidin-1-yl-ethoxy)-4-trifluoromethyl-phenyl]-nicotinamide]
IC50: < 50 nM

CNc1cc(CNc2ncccc2C(=O)Nc2ccc3c(c2)NCC3(C)C)ccn1 [Example 1104, N-(3,3-Dimethyl-2,3-dihydro-1H-indol-6-yl)-2-[(2-methylamino-pyridin-4-ylmethyl)-amino]-nicotinamide]
IC50: < 50 nM

CNc1cc(CNc2ncccc2C(=O)Nc2ccc3c(c2)N(C(C)=O)CC3(C)C)ccn1 [Example 1103, N-(1-Acetyl-3,3-dimethyl-2,3-dihydro-1H-indol-6-yl)-2-[(2-methylamino-pyridin-4-ylmethyl)-amino]-nicotinamide]
IC50: < 50 nM

O=C(Nc1cccc(C(F)(F)F)c1)c1cccnc1NCc1ccc2c(c1)CCO2 [Example 827, {2-[(2,3-Dihydrobenzo[b]furan-5-ylmethyl)amino](3-pyridyl)}-N-[3-(trifluoromethyl)phenyl]carboxamide]
IC50: < 50 nM

COc1cc(CNc2ncccc2C(=O)Nc2ccc(C(C)(C)C)c(OC[C@@H]3CCCN3)c2)ccn1 [Example 1067, N-(4-(1,1-dimethylethyl)-3-(((2S)-2-pyrrolidinylmethyl)oxy)phenyl)-2-(((2-(methyloxy)-4-pyridinyl)methyl)amino)-3-pyridinecarboxamide]
IC50: < 50 nM

CC1(C)Oc2ccc(NC(=O)c3cccnc3NCc3ccncc3)cc2NC1=O [Example 944, N-(2,2-Dimethyl-3-oxo-3,4-dihydro-2H-benzo[1,4]oxazin-6-yl)-2-[(pyridin-4-ylmethyl)-amino]-nicotinamide]
IC50: < 50 nM

CCc1cc(CNc2ncccc2C(=O)Nc2ccc(C(C)(C)C)cc2)ccn1 [Example 873, N-(4-tert-Butyl-phenyl)-2-{[2-ethylpyridin-4-ylmethyl]-amino}-nicotinamide]
IC50: < 50 nM

CC1(C)CNc2cc(NC(=O)c3cccnc3NCc3ccncn3)ccc21 [Example 1029, N-(3,3-Dimethyl-2,3-dihydro-1H-indol-6-yl)-2-((4-pyrimidinylmethyl)amino)-3-pyridinecarboxamide]
IC50: < 50 nM

CNc1nccc(CNc2ncccc2C(=O)Nc2cc(NC(=O)O[C@H]3CCOC3)cc(C(F)(F)F)c2)n1 [Example 1089, (3S)-tetrahydro-3-furanyl 3-(((2-(((2-(methylamino)-4-pyrimidinyl)methyl)amino)-3-pyridinyl)carbonyl)amino)-5-(trifluoromethyl)phenylcarbamate]
IC50: < 50 nM

CNc1nccc(CNc2ncccc2C(=O)Nc2ccc3c(c2)N(C(=O)CN(C)C)CC3(C)C)n1 [Example 1039, N-(1-(N,N-Dimethylglycyl)-3,3-dimethyl-2,3-dihydro-1H-indol-6-yl)-2-(((2-(methylamino)-4-pyrimidinyl)methyl)amino)-3-pyridinecarboxamide]
IC50: < 50 nM

COc1cc(CNc2ncccc2C(=O)Nc2ccc3c(c2)NCC3(C)C)ccn1 [Example 1000, N-(3,3-dimethyl-2,3-dihydro-1H-indol-6-yl)-2-[(2-methoxy-pyridin-4-ylmethyl)-amino]-nicotinamide]
IC50: < 50 nM

CNc1cc(CNc2ncccc2C(=O)Nc2cc(Cl)cc(NC(=O)CN(C)C)c2)ccn1 [Example 1149, N-[3-Chloro-5-(2-dimethylamino-acetylamino)-phenyl]-2-[(2-methylamino-pyridin-4-ylmethyl)-amino]-nicotinamide]
IC50: < 50 nM

CC(C)(C)c1ccc(NC(=O)c2cccnc2NCc2ccc3c(c2)CCO3)cc1 [Example 826, N-[4-(tert-Butyl)phenyl]{2-[(2,3-dihydrobenzo[b]furan-5-ylmethyl)amino](3-pyridyl)}carboxamide]
IC50: < 50 nM

O=C(Nc1ccc(Oc2ccccc2)cc1)c1cccnc1NCc1ccncc1 [Example 158, N-(4-Phenoxyphenyl){2-[(4-pyridylmethyl)amino](3-pyridyl)}carboxamide]
IC50: < 50 nM

CNc1cc(CNc2ncccc2C(=O)Nc2ccc3c(c2)NCC32CC2)ccn1 [Example 1107, N-(1,2-dihydroindol-3-spiro-1′-cyclopropane-6-yl)-2-[(2-methylaminopyridin-4-ylmethyl)-amino]-nicotinamide]
IC50: < 50 nM

O=C(Nc1cc(NC(=O)c2cccnc2NCc2ccncn2)cc(C(F)(F)F)c1)O[C@H]1CCOC1 [Example 1086, (3S)-tetrahydro-3-furanyl 3-(((2-((4-pyrimidinylmethyl)amino)-3-pyridinyl)carbonyl)amino)-5-(trifluoromethyl)phenylcarbamate]
IC50: < 50 nM
